Laboratory results from US12251449B2, “Synthetic multidomain peptide biomaterials that inhibit inducible nitric oxide synthase” (William Marsh Rice University, priority 2019, dated 2025).
Entries after “also recorded” stand apart in the source; their conditions may differ. *1 amine or outer side, *2 acyl side, *3 side chain or, on linkers, in order; H or OH if unused. Where a SMILES comes first, the peptide text is derived from it. [ ]: non-standard residue; d: D form. X1 = CC(=N)NCCCC[C@H](N[*:1])C(=O)[*:2]

What was measured:
iNOS [1] = target: T1, iNOS (Mus musculus, UniProt P29477); assay: iNOS knockdown in vitro Greiss assay; format: cell-based
T1 construct: endogenous in cells; host or cells: RAW 264.7 murine macrophages stimulated with LPS and IFN-gamma
T1 sequence (P29477 1-1144): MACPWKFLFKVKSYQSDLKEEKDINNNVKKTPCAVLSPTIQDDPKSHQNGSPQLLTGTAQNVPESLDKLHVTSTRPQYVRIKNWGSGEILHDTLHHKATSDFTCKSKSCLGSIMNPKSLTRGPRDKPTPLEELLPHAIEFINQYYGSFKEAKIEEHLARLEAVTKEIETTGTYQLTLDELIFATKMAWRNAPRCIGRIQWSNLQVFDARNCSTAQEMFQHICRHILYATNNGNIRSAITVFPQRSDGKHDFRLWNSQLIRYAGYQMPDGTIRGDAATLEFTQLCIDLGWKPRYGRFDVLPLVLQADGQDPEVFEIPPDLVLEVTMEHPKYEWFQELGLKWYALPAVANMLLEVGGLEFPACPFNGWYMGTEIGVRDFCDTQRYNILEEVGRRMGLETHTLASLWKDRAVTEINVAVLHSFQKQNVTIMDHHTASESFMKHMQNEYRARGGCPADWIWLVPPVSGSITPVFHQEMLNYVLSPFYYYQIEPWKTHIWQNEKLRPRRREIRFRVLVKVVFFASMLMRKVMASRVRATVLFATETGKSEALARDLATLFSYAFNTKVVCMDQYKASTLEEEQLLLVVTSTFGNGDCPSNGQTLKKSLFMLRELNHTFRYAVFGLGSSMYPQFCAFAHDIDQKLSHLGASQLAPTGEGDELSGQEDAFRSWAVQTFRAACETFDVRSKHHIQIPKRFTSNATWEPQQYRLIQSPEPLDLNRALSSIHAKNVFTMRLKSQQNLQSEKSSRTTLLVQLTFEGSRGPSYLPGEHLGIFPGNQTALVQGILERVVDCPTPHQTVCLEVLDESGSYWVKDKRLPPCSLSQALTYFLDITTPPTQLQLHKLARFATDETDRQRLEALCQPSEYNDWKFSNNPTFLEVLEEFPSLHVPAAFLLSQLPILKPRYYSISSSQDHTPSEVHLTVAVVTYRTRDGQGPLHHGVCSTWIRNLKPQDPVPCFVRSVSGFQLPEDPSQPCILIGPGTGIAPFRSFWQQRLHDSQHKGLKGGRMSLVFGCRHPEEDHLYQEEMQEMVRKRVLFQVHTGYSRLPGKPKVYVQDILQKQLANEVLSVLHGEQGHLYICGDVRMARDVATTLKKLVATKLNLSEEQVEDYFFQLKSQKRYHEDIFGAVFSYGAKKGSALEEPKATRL
Procedure: iNOS knockdown in vitro Greiss assay. To evaluate the iNOS knockdown efficacy of various materials, the following procedure was used to test % iNOS inhibition of RAW 264.7 cells stimulated with Lipopolysaccharide (LPS, Thermo Fisher Scientific, Rockford, IL) and recombinant mouse IFN-7 (Biolegend, San Diego, CA). RAW macrophages were prepared at a stock concentration of 2.5×10^6 cells/mL, and plated at 2.5×10^5 cells per well in 24-well plates. For samples testing the efficacy of 2-D surface cell culture, 200 μL of MDP hydrogels was applied to evenly coat the surface of each well before addition of cells. Each experimental condition was performed in triplicate. The following controls were included in every experiment, 1) media alone, 2) stimulated cells alone, and 3) unstimulated cells alone. To each well, stimulation media or normal media was then added based on experimental requirement. Stimulation media was prepared with LPS (final concentration 1 μg/mL) and IFN-7 (final concentration 100 U/mL). For samples testing material efficacy in solution (e.g. free L-NIL), after 6 hrs of incubation at 37° C. with 5% CO2 the desired concentration of inhibitor was added to achieve a range of concentrations between 1 μM and 1 mM.
In all cases after 24 hours from time of stimulation, samples of cell media were collected from each well after mixing media by pipetting before collection. Media samples were placed into a 96-well plate and centrifuged at 5000 rpm for 10 min. Supernatants were removed and placed in a new clear 96-well plate, and samples were immediately analyzed using a colorimetric Greiss Assay (Cayman Chemical, Ann Arbor, MI) to assess nitrite levels (Bryan & Grisham, 2007). Color was allowed to develop for 10 min following addition of Greiss reagents, and absorbance was read at 540 nm on a plate reader. Percent iNOS inhibition for each sample was calculated by first subtracting the absorbance of the media-only baseline, and then converting to a percent of maximum nitrite signal as determined by the internal standard of stimulated cells alone.

[2] = IgG release kinetics from hydrogels; format: physicochemical; conditions: compared with alginate and K2-MDP
Text: Whether the drug-mimicking L-NIL-MDP hydrogel could effectively load and control the delivery of IgG compared to other biomaterials was investigated.

iNOS [3] = assay: Anti-nitrotyrosine immunostaining of subcutaneously injected hydrogels; format: in vivo, mice; conditions: subcutaneous implants, 3 and 7 days post injection
Procedure: Subcutaneous experiments and histology. C57BL/6J female mice were purchased from The Jackson Laboratory at age 8-12 weeks for subcutaneous characterization experiments. Mice were housed under specific pathogen-free conditions in standard temperature and lighting conditions with free access to food and water, and experiments were conducted with approval of the Institutional Animal Care and Use Committee (IACUC) at Rice University and according to NIH guidelines. Mice were injected with 100 μL MDP hydrogels in each of four separate sites in the subcutaneous space of the dorsal flank after the skin was shaved and sterilized with alcohol. At days 3, 7, 14, and 21 the mice were euthanized and the dorsal skin around the entire implant was removed, fixed overnight in 10% neutral buffered formalin, processed and paraffin embedded, and finally sectioned at […] thickness for staining using standard Masson's trichrome or hematoxylin and eosin (H&E) procedures, as well as immunohistochemical analyses (e.g., anti-nitrotyrosine IHC, or α-SMA blood vessel analysis).
Immunohistochemistry staining was performed on hydrogel implant tissue sections to further study in vivo properties of the L-NIL-MDP compared to related cationic MDPs. Anti-nitrotyrosine immunostaining was used to assess relative levels of nitrosylation of tyrosine within and around the subcutaneously injected hydrogel implants as a marker of iNOS inhibition (FIGS. 7A-H). It is known that the formation of nitric oxide (NO) and other nitrogen oxides in vivo can lead to observable post-translation modifications of peptides and proteins (Ischiropoulos, 2003). For example, surface-exposed 3-nitrotyrosine can be used as a marker of cell or tissue inflammation and damage by reactive nitrogen and oxygen species such as NO (Ahsan, 2013). The higher the local levels of iNOS activity, the greater should be the density of nitrosylated tyrosine. Therefore, visualization of nitrotyrosine levels by targeted antibodies can serve as a general indication of in vivo iNOS activity, or in the case of the L-NIL-MDP, local iNOS inhibition.

## CC(=N)NCCCC[C@H](NC(=O)[C@H](CCCCNC(C)=N)NC(=O)[C@H](CC(C)C)NC(=O)[C@H](CO)NC(=O)[C@H](CC(C)C)NC(=O)[C@H](CO)NC(=O)[C@H](CC(C)C)NC(=O)[C@H](CO)NC(=O)[C@H](CC(C)C)NC(=O)[C@H](CO)NC(=O)[C@H](CC(C)C)NC(=O)[C@H](CO)NC(=O)[C@H](CC(C)C)NC(=O)[C@H](CO)NC(=O)[C@H](CCCCNC(C)=N)NC(=O)[C@H](CCCCNC(C)=N)NC(C)=O)C(N)=O [L-NIL-MDP] (Ac-[X1][X1]SLSLSLSLSLSL[X1][X1]-NH2)
iNOS [1]; hydrogel surface culture compared with free L-NIL in solution
  free L-NIL concentration giving a comparable level of iNOS inhibition: ~100 µM
iNOS [1]; stimulated RAW macrophages cultured on the hydrogel
  iNOS inhibition (in words): greatest degree of iNOS inhibition
[2]
  control of IgG release (in words): able to control the release of IgG more effectively
iNOS [3]
  nitrotyrosine staining intensity (in words): significantly lower; also recorded: lowest degree of nitrotyrosine staining
